These results are taken from ChEMBL document CHEMBL3243984, “Methotrexate analogues. 11. Unambiguous chemical synthesis and in vitro biological evaluation of alpha- and gamma-monoesters as potential prodrugs” (J Med Chem, 1978).

Data set [1] concerns CCRF-CEM. Briefly: Growth inhibition of human CCRF-CEM cells. Format: functional.
Data set [2] addresses T1, Dihydrofolate reductase (Oryctolagus cuniculus) (UniProt C1JLF0).
T1 sequence (whole entry): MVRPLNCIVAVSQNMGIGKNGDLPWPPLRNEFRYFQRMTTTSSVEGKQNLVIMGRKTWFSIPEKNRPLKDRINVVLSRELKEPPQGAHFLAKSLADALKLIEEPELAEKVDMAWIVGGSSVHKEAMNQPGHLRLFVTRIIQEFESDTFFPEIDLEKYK
Briefly: Inhibition of rabbit liver dihydrofolate reductase using [3H]-folic acid after 10 mins by scintillation counting.

In data set [3] the test system is Serum. As to the kind of experiment: Retention time in human serum at 150 mg after 72 hrs by HPLC analysis. It is filed as ADME, cell-free.
Data set [4] has as its system Serum. As to the kind of experiment: Drug metabolism in mouse serum assessed as parent compound level at 0.006 g after 2 hrs by TLC analysis. Format: ADME, cell-free.
Data set [5] relates to Serum. As to the kind of experiment: Drug metabolism in mouse serum assessed as parent compound level at 0.006 g after 6 hrs by TLC analysis. It is filed as ADME, cell-free.
Data set [6] is described as follows: Drug metabolism in mouse serum assessed as parent compound level at 0.006 g after 24 hrs by TLC analysis. Format: ADME, cell-free. The note with it: read-out: Drug metabolism.
Data set [7] can be described thus: Drug metabolism in mouse serum assessed as parent compound level at 0.006 g after 48 hrs by TLC analysis. The following applies: read-out: Drug metabolism. Format: ADME, cell-free.
Data set [8] in a line: Drug metabolism in monkey serum assessed as parent compound level at 0.006 g after 2 hrs by TLC analysis. Format: ADME, cell-free, Macaca mulatta. The following applies: rhesus monkey, read-out: Drug metabolism.
Data set [9] in a line: Drug metabolism in monkey serum assessed as parent compound level at 0.006 g after 6 hrs by TLC analysis. The following applies: rhesus monkey, read-out: Drug metabolism. It is filed as ADME, cell-free, Macaca mulatta.
Data set [10] can be described thus: Drug metabolism in monkey serum assessed as parent compound level at 0.006 g after 24 hrs by TLC analysis. Format: ADME, cell-free, Macaca mulatta. The note with it: rhesus monkey, read-out: Drug metabolism.
Data set [11] in a line: Drug metabolism in monkey serum assessed as parent compound level at 0.006 g after 48 hrs by TLC analysis. It is filed as ADME, cell-free, Macaca mulatta. The note with it: rhesus monkey, read-out: Drug metabolism.
A short description of data set [12]: Drug metabolism in human serum assessed as parent compound level at 0.006 g after 2 hrs by TLC analysis. It is filed as ADME, cell-free. The note with it: read-out: Drug metabolism.
Data set [13] can be described thus: Drug metabolism in human serum assessed as parent compound level at 0.006 g after 6 hrs by TLC analysis. It is filed as ADME, cell-free. The note with it: read-out: Drug metabolism.
Data set [14] is described as follows: Drug metabolism in human serum assessed as parent compound level at 0.006 g after 24 hrs by TLC analysis. It is filed as ADME, cell-free. The note with it: read-out: Drug metabolism.
The nature of data set [15]: Drug metabolism in human serum assessed as parent compound level at 0.006 g after 48 hrs by TLC analysis. The following applies: read-out: Drug metabolism. Format: ADME, cell-free.
For data set [16], the system named is Serum. Briefly: Drug metabolism in rat serum assessed as DBMTX level at 0.006 g after 2 hrs by TLC analysis. It is filed as ADME, cell-free.
In data set [17] the test system is Serum. As to the kind of experiment: Drug metabolism in rat serum assessed as DBMTX level at 0.006 g after 6 hrs by TLC analysis. Format: ADME, cell-free.
For data set [18], the system named is Serum. As to the kind of experiment: Drug metabolism in rat serum assessed as DBMTX level at 0.006 g after 24 hrs by TLC analysis. Format: ADME, cell-free.
Data set [19] relates to Serum. As to the kind of experiment: Drug metabolism in rat serum assessed as DBMTX level at 0.006 g after 48 hrs by TLC analysis. It is filed as ADME, cell-free.
Data set [20] concerns Serum. As to the kind of experiment: Drug metabolism in rat serum assessed as MBMTX level at 0.006 g after 2 hrs by TLC analysis. Format: ADME, cell-free.
Data set [21] has as its system Serum. As to the kind of experiment: Drug metabolism in rat serum assessed as MBMTX level at 0.006 g after 6 hrs by TLC analysis. It is filed as ADME, cell-free.
Data set [22] deals with Serum. Briefly: Drug metabolism in rat serum assessed as MBMTX level at 0.006 g after 24 hrs by TLC analysis. It is filed as ADME, cell-free.
The subject of data set [23] is Serum. As to the kind of experiment: Drug metabolism in rat serum assessed as MBMTX level at 0.006 g after 48 hrs by TLC analysis. Format: ADME, cell-free.
Data set [24] relates to Serum. Briefly: Drug metabolism in rat serum assessed as parent compound level at 0.006 g after 2 hrs by TLC analysis. It is filed as ADME, cell-free.
Data set [25] relates to Serum. As to the kind of experiment: Drug metabolism in rat serum assessed as parent compound level at 0.006 g after 6 hrs by TLC analysis. It is filed as ADME, cell-free.
For data set [26], the system named is Serum. As to the kind of experiment: Drug metabolism in rat serum assessed as parent compound level at 0.006 g after 24 hrs by TLC analysis. It is filed as ADME, cell-free.
Data set [27] deals with Serum. As to the kind of experiment: Drug metabolism in rat serum assessed as parent compound level at 0.006 g after 48 hrs by TLC analysis. Format: ADME, cell-free.
For data set [28], the system named is Serum. Briefly: Drug metabolism in human serum assessed as MTX alpha-monobutyl ester level at 150 mg after 72 hrs by HPLC analysis. It is filed as ADME, cell-free.
In data set [29] the test system is Serum. As to the kind of experiment: Drug metabolism in human serum assessed as MTX gamma-monobutyl ester level at 150 mg after 72 hrs by HPLC analysis. It is filed as ADME, cell-free.

`CCOC(=O)CC[C@H](NC(=O)c1ccc(N(C)Cc2cnc3nc(N)nc(N)c3n2)cc1)C(=O)OCC` yielded an ID50 in data set [1] of 0.012 ×10⁻⁶ mol/L.
As to `CCCCOC(=O)CC[C@H](NC(=O)c1ccc(N(C)Cc2cnc3nc(N)nc(N)c3n2)cc1)C(=O)O`, the ID50 was 0.76 ×10⁻⁶ mol/L in data set [1] and 1.7 ×10⁻⁸ mol/L in data set [2]. This compound also showed a Retention_time in data set [3] of 3.2 min.
In the case of `CCCCOC(=O)CC[C@H](NC(=O)c1ccc(N(C)Cc2cnc3nc(N)nc(N)c3n2)cc1)C(=O)OCCCC`, the ID50 stood at 0.057 ×10⁻⁶ mol/L in data set [1] and 1.4 ×10⁻⁷ mol/L in [2]. Besides, the Drug metabolism in data set [4] is listed as 43%; in [5], 46%; in data set [16], “metabolite_detected”; in data set [17] it was “metabolite_detected”; in [18], “metabolite_detected”; in data set [19] it was “metabolite_detected”. For the same compound, the Drug metabolism entry in data set [20], in [21], in data set [22], in [23], in data set [24] and in data set [25] was “metabolite_detected” in each case. In addition, the Drug metabolism result in data set [26], in data set [27], in data set [28] and in [29] was “metabolite_detected” throughout. The remaining at 24 h was 89% in [6], under 1% in [10] and 1% in data set [14]. The remaining at 48 h in data set [7] was 93%; in data set [11], 2%; in data set [15], under 1%. Moreover, the remaining at 2 h in data set [8] and in data set [12] was under 1% in each case. The remaining at 6 h in [9] and in data set [13] was under 1% each time.
In turn, `CCOC(=O)[C@H](CCC(=O)O)NC(=O)c1ccc(N(C)Cc2cnc3nc(N)nc(N)c3n2)cc1` returned an ID50 in [1] of 6.2 ×10⁻⁶ mol/L.
On to `CCCCOC(=O)[C@H](CCC(=O)O)NC(=O)c1ccc(N(C)Cc2cnc3nc(N)nc(N)c3n2)cc1`, for which the ID50 worked out at 2 ×10⁻⁶ mol/L in [1] and 1.7 ×10⁻⁸ mol/L in [2]. In [3], this compound displayed a Retention_time of 5.1 min.
With `CN(Cc1cnc2nc(N)nc(N)c2n1)c1ccc(C(=O)N[C@@H](CCC(=O)O)C(=O)O)cc1` [METHOTREXATE], the ID50 turned out to be 0.006 ×10⁻⁶ mol/L in [1] and 9 ×10⁻⁹ mol/L in data set [2]. In data set [3], this compound returned a Retention_time of 2 min.
In data set [1], `COC(=O)CC[C@H](NC(=O)c1ccc(N(C)Cc2cnc3nc(N)nc(N)c3n2)cc1)C(=O)O` showed an ID50 of 0.43 ×10⁻⁶ mol/L.
Same read-out and setting: the value for `COC(=O)CC[C@H](NC(=O)c1ccc(N(C)Cc2cnc3nc(N)nc(N)c3n2)cc1)C(=O)OC` was 0.4 ×10⁻⁶ mol/L.
Compound `CCOC(=O)CC[C@H](NC(=O)c1ccc(N(C)Cc2cnc3nc(N)nc(N)c3n2)cc1)C(=O)O` showed an ID50 in data set [1] of 0.58 ×10⁻⁶ mol/L.
